Test results from patent US20130164379A1, “NANOPARTICLE MICELLE COATED COMPOSITIONS” (priority 2011, published 2013).

Experiments:
purified proteasomes = target: T1, purified proteasomes (Homo sapiens, UniProt P28072); assay: Proteasome activity assay on purified proteasomes; type: biochemical; conditions: bortezomib 5 nM, thiostrepton 20 μM
T1 construct: purchased Enzo
Protocol: To assay proteasome inhibitor activities of proteasome inhibitors purified proteasomes, (0.5 μg, 1 μg/μL) were pre-incubated with inhibitors bortezomib (5 nM, 1 μL of 0.5 μM in DMSO) and/or thiostrepton (20 μM, 1 μL of 2 mM) in 10× assay buffer (10 μL) and H2O (88.5 μL) for 30 min at room temperature. Ac-YVAD-amc substrate (10 μL, 0.5 mM) was then added and the assay solution was incubated at […] for 2 hr, after which solutions were examined for fluorescence at excitation wavelength of 340 nm and emission wavelength of 505 nm. Values are represented as a % of the proteasome activity of non-inhibited proteasomes.

[1] = tested on: MDA-MB-231-luc solid breast tumor xenografts; assay: MDA-MB-231-luc breast tumor xenograft, combination with bortezomib; type: in vivo, athymic mice; conditions: thiostrepton 30 mg/kg i.v., bortezomib 0.5 mg/kg i.p., 5 injections
Protocol: Animals were maintained and treated in accordance with the Animal Care and Use Committee of UIC. […] Treatment began once tumors reached sizes of 100 mm^3. After completion of the dosing schedule, animals were sacrificed and tumors were removed. Tumors were frozen in liquid N2 and kept at −80° C. until further analysis.
Treatments were performed once every two days (3 times a week), during which tumor volumes were monitored with calipers (l×w×h=volume, mm^3). Animals were also weighed once a week. After 5 treatments, animals were sacrificed and tumors removed.
For bioluminescence imaging, animals were injected intraperitonially with 100 mg luciferin/kg 10 min before animals were anaesthetized under isoflurane. Animals were then imaged for tumor-associated bioluminescence (IVIS, Xenogen), where relative units of bioluminescence were quantified as flux (photon/sec) and analyzed with Living Image software.

[2] = tested on: DEN/PB hepatocellular carcinoma mouse model
Protocol: The efficacy of nanoparticle micelle coated compositions containing thiostrepton in inhibiting tumor growth in DEN/PB hepatocellular carcinoma mouse model was evaluated.
Spontaneous induction of HCC was achieved by intraperitonial injection of the carcinogen diethylnitrosamine (DEN) into 2-day-old neonatal BALB/C mice. Carcinogenesis was further induced by continuing the mice on phenobarbital (PB)-doped drinking water (1 mg/mL). […] As a treatment schedule, animals were treated once every other day (3 times a week) for 5 weeks before sacrifice, after which livers were removed and examined for visible tumor growth (FIG. 14b).
Animal livers were then fixed in 4% paraformaldehyde, embedded in paraffin wax and the right lobe of embedded livers were sectioned and stained with H&E for quantitative analysis of carcinoma formation.

[3] = tested on: U2OS-C3 osteosarcoma cells; assay: Immunoblotting for caspase-3 cleavage, thiostrepton and bortezomib; type: cell-based, human; conditions: U2OS-C3, sub-apoptotic concentrations, 24 hr
Protocol: U2OS-C3 osteosarcoma, PA-1 ovarian, HCT116 colon and MiaPaca-2 pancreatic cancer cells were cultured in DMEM medium (Invitrogen). HCT-116 and MiaPaca-2 (shFOXM1) cells were cultured in DMEM medium (Invitrogen). MDA-MB231 (parental and shFOXM1) cells were grown in RPMI-1640 medium (Invitrogen). The media were supplemented with 10% fetal bovine serum (Atlanta Biologicals) and 1% penicillin-streptomycin (GIBCO) and the cells were kept at 37° C. in 5% CO2. Stable cell lines were generated by transduction of FOXM1 shRNA lentiviral particles (Sigma) followed by selection with puromycin (Sigma).
Actively dividing cells were seeded into a 100-mm plate at a density of 7.5×10^5 cells. […] Cells were lysed in IP buffer (20 mM HEPES, 1% Triton X-100, 150 mM NaCl, 1 mM EDTA, 1 mM EGTA, 100 mM NaF, 10 mM Na4P2O7, 1 mM sodium orthovanadate, 0.2 mM PMSF supplemented with protease inhibitor tablet and the protein concentration was determined using the Bio-Rad protein assay reagent. Fifty micrograms of the cell lysates were separated by electrophoresis on SDS-polyacrylamide mini gel and transferred to PVDF membrane Immunoblotting was performed with specific antibodies for cleaved caspase-3 (9664 Cell Signaling), FOXM1 (Dr. Costa) and β-actin (A5441, Sigma).

HCT-116 cells = assay: Detection of apoptosis by annexin V-PE/7AAD flow cytometry; type: cell-based, human; conditions: HCT-116, 0.75 μM thiostrepton, 10 nM bortezomib, 24 hr; single drugs over the control
Protocol: The AnnexinV-PE staining kit (559763, BD Bio. Sci.) was used for the detection of apoptotic bodies following the vendor's protocol. This kit uses a dual-staining protocol in which the cells show fluorescence of Annexin V (apoptotic cells) and fluorescence of 7AAD (necrotic cells or late apoptotic cells). Briefly the tumor cells were grown at a density of 50% confluence in 100-mm culture dishes and were treated with varying concentrations of the drugs for 24 hr. The cells were trypsinized, washed with PBS, and were processed for labeling with annexinV-7AAD. The labeled cells were analyzed by flow cytometry.

[4] = Solubility observation of thiostrepton in cell media; type: physicochemical; conditions: DMSO-dissolved thiostrepton added to cell media

Row | Compound | inhibition of purified proteasomes (YVAD-amc cleavage) (purified proteasomes) | tumor size / tumor growth compared to non-treated tumors [1] | increase in tumor size compared to the first day of treatment ([1]; 15 days) [fold] | body weights of treated animals compared to non-treated animals ([2]; 3 times a week for 5 weeks) | number of adenomas compared to livers from non-treated animals ([2]; single treatments, H&E sections) | fewer number of visible liver tumors compared to non-treated control animals ([2]; thiostrepton-micelle 30 mg/kg i.v., bortezomib 0.5 mg/kg i.p., 3 times a week for 5 weeks) [%] | caspase-3 cleavage [3] | apoptosis (annexin V-PE/7AAD) (HCT-116 cells) [%] | solubility [4]
1 | CC(C)C[C@H](NC(=O)[C@H](Cc1ccccc1)NC(=O)c1cnccn1)B(O)O [bortezomib] | only slightly hindered | slight reduction in tumor growth | 6 | did not decrease significantly | suppression of the number of adenomas | 50 | little or no caspase-3 cleavage | 6.9 | –
2 | C=C(NC(=O)C(=C)NC(=O)c1csc(C2=N[C@@H]3c4csc(n4)[C@H]4NC(=O)c5csc(n5)[C@H]([C@](C)(O)[C@@H](C)O)NC(=O)[C@H]5CSC(=N5)/C(=C/C)NC(=O)[C@H]([C@@H](C)O)NC(=O)c5csc(n5)[C@]3(CC2)NC(=O)[C@H](C)NC(=O)C(=C)NC(=O)[C@H](C)NC(=O)[C@H]([C@@H](C)CC)N[C@@H]2C=Cc3c([C@H](C)O)cc(nc3[C@H]2O)C(=O)O[C@@H]4C)n1)C(N)=O [thiostrepton] | only slightly hindered | – | – | – | – | – | little or no caspase-3 cleavage | 6.1 | highly insoluble
